Results on one compound are retold here after BindingDB's records for patent US11964990 (Abbvie, 2024).

The target of experiment [1] is Apoptosis regulator Bcl-2 (Homo sapiens, UniProt P10415). As to the kind of experiment: Time Resolved-Fluorescence Resonance Energy Transfer (TR-FRET) Assay. As for the experimental part:
(§1) [Bcl-2 protein or Bcl-xL protein], [Probe], [Antibody],Protein Probe nM nM Antibody nMGST- F-Bak 1 100 Tb-anti- 1Bcl- Acetyl-(SEQ GST 2 ID NO: 3)-NH2The samples were then mixed on a shaker for 1 minute and equilibrated for an additional 3 hours at room temperature. For each assay plate, a probe/antibody and protein/antibody/probe mixture were included as a negative and a positive control, respectively. Fluorescence was measured on the Envision (Perkin Elmer) using a 340/35 nm excitation filter and 520/525 (F-Bak) and 495/510 nm (Tb-labeled anti-GST antibody) emission filters. Inhibition constants (Ki) were determined using Wang's equation (Wang FEBS Lett. 1995, 360, 111-114). The TR-FRET assay can be performed in the presence of varying concentrations of human serum (HS) to determine apparent half maximal inhibitory concentration (IC50) after HS protein binding.
(In TR-FRET formats the signal depends on donor and acceptor labels being close together.)

Experiment [2] has as its target Bcl-2-like protein 1 (Homo sapiens, UniProt Q07817). The description is as above. Here is the method:
as §1

SMILES strings stand for the structures.

Chain of Apoptosis regulator Bcl-2 (P10415 whole entry): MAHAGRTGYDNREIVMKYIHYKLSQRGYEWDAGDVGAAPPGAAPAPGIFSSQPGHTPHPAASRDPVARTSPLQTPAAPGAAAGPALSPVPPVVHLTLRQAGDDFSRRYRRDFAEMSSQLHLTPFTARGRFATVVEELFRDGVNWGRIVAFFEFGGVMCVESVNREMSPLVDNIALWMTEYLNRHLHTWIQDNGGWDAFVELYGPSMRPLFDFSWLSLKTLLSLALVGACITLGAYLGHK
Chain of Bcl-2-like protein 1 (Q07817 whole entry): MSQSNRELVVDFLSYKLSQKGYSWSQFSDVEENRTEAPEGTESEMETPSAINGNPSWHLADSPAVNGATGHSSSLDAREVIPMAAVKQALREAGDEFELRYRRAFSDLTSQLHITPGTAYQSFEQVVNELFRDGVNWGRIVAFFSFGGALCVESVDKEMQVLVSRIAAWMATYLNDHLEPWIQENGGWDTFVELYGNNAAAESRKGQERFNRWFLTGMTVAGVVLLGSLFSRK

For `C[C@@H]1CC[C@H](CNc2ccc(S(=O)(=O)NC(=O)c3ccc(N4CCN5CC6=C(c7ccc(Cl)cc7)CC(C)(C)C[C@H]6OCCCOC[C@@H]5C4)cc3N3CCCOc4nc5[nH]ccc5cc43)cc2[N+](=O)[O-])OC1` [US11964990, Example 21], the figures for the Ki in experiment [1] and in experiment [2] were 0.521 nM and 58.9 nM, respectively.
